This note sets out measurements from ChEMBL document CHEMBL3132769, “Fragment growing to retain or alter the selectivity of anchored kinase hinge-binding fragments” (Medchemcomm, 2014).

The target in assay [1] is T1, Cytoplasmic tyrosine-protein kinase BMX (Homo sapiens) (UniProt P51813).
T1 sequence (whole entry): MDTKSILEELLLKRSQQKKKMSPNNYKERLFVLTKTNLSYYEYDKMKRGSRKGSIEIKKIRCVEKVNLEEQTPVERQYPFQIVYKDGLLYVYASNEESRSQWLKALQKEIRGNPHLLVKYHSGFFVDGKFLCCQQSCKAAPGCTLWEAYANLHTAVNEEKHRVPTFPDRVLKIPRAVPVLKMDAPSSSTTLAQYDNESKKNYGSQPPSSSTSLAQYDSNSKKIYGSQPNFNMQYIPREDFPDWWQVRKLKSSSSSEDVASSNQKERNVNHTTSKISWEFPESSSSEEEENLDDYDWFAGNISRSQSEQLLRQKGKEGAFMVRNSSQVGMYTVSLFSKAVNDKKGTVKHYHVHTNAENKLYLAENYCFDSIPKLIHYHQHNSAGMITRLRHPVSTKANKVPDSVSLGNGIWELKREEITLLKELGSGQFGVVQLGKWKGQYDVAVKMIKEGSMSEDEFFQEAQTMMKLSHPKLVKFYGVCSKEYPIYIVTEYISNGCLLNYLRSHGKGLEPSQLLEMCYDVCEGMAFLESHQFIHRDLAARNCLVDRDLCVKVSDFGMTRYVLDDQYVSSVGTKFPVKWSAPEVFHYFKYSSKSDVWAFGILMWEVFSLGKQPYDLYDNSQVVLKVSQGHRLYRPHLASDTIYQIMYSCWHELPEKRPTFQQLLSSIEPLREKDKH
Kind of assay: Inhibition of human full length BMX expressed in baculovirus assessed as substrate phosphorylation using fluorescence-labelled peptides as substrate at 0.1 uM after 90 mins by microfluidic peptide phosphorylation assay.

In assay [2] the target is Tyrosine-protein kinase Fer (Homo sapiens) (UniProt P16591). As to conditions: 0.1 uM.
Chain of Tyrosine-protein kinase Fer (Homo sapiens) (P16591 whole entry, looked up): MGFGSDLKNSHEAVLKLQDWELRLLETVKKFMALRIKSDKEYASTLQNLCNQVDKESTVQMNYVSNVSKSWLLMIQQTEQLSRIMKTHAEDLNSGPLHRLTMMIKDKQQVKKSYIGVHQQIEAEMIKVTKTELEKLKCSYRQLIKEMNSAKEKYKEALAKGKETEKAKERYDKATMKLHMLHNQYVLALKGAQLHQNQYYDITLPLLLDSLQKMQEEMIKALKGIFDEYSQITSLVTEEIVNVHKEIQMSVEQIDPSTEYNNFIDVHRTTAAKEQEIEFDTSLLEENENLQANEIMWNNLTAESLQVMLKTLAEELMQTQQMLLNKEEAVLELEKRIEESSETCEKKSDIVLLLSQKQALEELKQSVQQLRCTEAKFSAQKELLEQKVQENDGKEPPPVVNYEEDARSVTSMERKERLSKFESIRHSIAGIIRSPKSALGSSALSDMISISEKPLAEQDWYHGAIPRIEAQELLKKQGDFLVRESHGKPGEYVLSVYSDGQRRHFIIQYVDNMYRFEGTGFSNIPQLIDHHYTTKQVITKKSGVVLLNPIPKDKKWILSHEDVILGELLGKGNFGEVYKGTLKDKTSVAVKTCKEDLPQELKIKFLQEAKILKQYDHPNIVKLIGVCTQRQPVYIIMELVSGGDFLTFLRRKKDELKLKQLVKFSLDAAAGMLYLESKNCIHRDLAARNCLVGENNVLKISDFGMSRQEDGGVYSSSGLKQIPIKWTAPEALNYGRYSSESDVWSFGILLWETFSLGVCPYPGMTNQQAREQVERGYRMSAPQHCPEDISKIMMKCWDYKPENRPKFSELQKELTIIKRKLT
Description: Inhibition of human FER catalytic domain expressed in baculovirus assessed as substrate phosphorylation using fluorescence-labelled peptides as substrate at 0.1 uM after 90 mins by microfluidic peptide phosphorylation assay
Assay [3] addresses Ribosomal protein S6 kinase alpha-1 (Homo sapiens) (UniProt Q15418). Briefly: Inhibition of human full length RSK1 expressed in baculovirus assessed as substrate phosphorylation using fluorescence-labelled peptides as substrate at 0.1 uM after 90 mins by microfluidic peptide phosphorylation assay.
For assay [4], the target named is T2, Serine/threonine-protein kinase D2 (Homo sapiens) (UniProt Q9BZL6).
T2 sequence (whole entry): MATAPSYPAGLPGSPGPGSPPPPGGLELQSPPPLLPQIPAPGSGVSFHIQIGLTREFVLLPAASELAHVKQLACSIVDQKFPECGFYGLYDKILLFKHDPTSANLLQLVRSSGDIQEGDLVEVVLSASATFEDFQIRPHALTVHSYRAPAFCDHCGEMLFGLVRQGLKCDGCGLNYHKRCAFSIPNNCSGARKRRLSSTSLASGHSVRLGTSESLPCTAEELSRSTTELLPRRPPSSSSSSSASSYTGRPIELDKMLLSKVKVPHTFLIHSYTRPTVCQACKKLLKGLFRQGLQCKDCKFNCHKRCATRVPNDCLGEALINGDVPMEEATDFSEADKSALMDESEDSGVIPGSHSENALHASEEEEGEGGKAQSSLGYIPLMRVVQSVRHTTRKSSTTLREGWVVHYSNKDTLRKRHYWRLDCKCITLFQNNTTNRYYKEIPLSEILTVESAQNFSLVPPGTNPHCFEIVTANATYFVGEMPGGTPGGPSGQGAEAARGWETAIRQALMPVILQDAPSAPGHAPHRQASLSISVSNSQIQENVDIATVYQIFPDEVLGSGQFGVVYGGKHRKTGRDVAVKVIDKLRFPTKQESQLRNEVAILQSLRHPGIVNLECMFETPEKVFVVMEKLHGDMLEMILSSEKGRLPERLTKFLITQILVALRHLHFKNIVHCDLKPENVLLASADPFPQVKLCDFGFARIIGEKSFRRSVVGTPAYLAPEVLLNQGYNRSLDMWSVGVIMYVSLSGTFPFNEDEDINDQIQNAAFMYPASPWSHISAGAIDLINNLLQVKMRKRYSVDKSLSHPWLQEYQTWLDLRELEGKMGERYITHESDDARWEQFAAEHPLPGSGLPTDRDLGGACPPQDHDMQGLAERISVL
Kind of assay: Inhibition of human full length PKD2 expressed in baculovirus assessed as substrate phosphorylation using fluorescence-labelled peptides as substrate at 420 uM after 90 mins by microfluidic peptide phosphorylation assay.

For assay [5], the target named is Tyrosine-protein kinase Lck (Homo sapiens) (UniProt P06239). Kind of assay: Inhibition of human full length LCK expressed in baculovirus assessed as substrate phosphorylation using fluorescence-labelled peptides as substrate at 95 uM after 90 mins by microfluidic peptide phosphorylation assay.
Chain of Tyrosine-protein kinase Lck (Homo sapiens) (P06239 2-509 limits assumed): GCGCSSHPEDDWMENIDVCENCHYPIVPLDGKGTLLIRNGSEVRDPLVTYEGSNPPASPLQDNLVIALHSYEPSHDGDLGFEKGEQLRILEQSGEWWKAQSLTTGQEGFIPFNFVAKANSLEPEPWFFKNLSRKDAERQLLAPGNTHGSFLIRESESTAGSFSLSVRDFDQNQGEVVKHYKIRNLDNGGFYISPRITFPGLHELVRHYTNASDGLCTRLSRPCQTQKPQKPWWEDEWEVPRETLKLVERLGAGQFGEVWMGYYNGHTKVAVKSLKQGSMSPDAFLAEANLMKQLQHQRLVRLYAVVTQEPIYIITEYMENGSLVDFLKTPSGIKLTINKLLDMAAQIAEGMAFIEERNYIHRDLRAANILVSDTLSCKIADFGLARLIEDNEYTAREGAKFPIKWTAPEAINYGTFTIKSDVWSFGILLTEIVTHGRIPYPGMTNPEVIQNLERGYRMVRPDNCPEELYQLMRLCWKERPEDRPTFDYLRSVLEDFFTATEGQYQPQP
Assay [6] deals with Tyrosine-protein kinase ABL1 (Homo sapiens), P00519 [H396P]. Briefly: Inhibition of human truncated ABL H396P mutant expressed in baculovirus assessed as substrate phosphorylation using fluorescence-labelled peptides as substrate at 9 uM after 90 mins by microfluidic peptide phosphorylation assay.
In assay [7] the target is T2, Serine/threonine-protein kinase D2 (Homo sapiens). Briefly: Inhibition of human full length PKD2 expressed in baculovirus assessed as substrate phosphorylation using fluorescence-labelled peptides as substrate at 9 uM after 90 mins by microfluidic peptide phosphorylation assay.
In assay [8] the target is Calcium/calmodulin-dependent protein kinase type II subunit beta (Homo sapiens) (UniProt Q13554). Kind of assay: Inhibition of human CAMK2 beta catalytic domain expressed in baculovirus assessed as substrate phosphorylation using fluorescence-labelled peptides as substrate at 8 uM after 90 mins by microfluidic peptide phosphorylation assay.
Chain of Calcium/calmodulin-dependent protein kinase type II subunit beta (Homo sapiens) (Q13554 whole entry, the tested form may be a part): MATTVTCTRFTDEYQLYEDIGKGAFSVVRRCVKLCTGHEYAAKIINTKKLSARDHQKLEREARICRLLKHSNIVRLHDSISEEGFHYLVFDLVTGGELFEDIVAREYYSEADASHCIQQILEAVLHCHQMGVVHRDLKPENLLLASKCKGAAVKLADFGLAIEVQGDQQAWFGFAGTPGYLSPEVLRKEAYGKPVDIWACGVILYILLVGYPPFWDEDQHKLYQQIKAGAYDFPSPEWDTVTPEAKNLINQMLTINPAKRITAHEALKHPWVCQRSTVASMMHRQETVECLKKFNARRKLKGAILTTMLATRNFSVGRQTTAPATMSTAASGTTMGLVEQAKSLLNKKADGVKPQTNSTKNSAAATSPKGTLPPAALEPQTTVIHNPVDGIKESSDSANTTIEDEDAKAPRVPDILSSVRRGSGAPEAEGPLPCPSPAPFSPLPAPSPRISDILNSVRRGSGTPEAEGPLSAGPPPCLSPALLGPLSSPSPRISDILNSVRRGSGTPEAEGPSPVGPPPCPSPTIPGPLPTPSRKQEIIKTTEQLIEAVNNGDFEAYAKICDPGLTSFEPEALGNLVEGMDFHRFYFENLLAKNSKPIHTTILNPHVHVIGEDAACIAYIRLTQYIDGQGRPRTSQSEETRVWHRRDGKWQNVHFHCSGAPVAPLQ
The target of assay [9] is T3, Protein kinase C zeta type (Homo sapiens) (UniProt Q05513).
T3 sequence (whole entry): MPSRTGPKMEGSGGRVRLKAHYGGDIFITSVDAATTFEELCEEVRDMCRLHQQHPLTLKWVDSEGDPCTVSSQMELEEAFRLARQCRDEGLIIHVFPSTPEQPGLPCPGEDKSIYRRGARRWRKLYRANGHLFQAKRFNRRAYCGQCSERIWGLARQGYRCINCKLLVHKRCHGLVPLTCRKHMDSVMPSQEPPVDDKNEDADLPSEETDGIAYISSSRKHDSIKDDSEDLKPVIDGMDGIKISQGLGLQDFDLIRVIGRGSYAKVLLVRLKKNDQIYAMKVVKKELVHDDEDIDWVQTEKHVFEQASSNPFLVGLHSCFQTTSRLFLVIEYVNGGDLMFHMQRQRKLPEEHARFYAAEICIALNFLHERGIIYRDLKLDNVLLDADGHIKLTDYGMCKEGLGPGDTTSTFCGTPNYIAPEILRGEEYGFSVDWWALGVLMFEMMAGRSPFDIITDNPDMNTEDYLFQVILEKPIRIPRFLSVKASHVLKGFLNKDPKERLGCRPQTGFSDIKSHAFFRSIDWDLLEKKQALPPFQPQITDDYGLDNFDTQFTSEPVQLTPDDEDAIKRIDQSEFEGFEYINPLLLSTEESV
Briefly: Inhibition of human full length PKC zeta expressed in baculovirus assessed as substrate phosphorylation using fluorescence-labelled peptides as substrate at 8 uM after 90 mins by microfluidic peptide phosphorylation assay.

The target in assay [10] is Platelet-derived growth factor receptor alpha (Homo sapiens) (UniProt P16234). Briefly: Inhibition of human PDGFR alpha catalytic domain expressed in baculovirus assessed as substrate phosphorylation using fluorescence-labelled peptides as substrate at 0.06 uM after 90 mins by microfluidic peptide phosphorylation assay.
Chain of Platelet-derived growth factor receptor alpha (Homo sapiens) (P16234 whole entry, the tested form may be a part): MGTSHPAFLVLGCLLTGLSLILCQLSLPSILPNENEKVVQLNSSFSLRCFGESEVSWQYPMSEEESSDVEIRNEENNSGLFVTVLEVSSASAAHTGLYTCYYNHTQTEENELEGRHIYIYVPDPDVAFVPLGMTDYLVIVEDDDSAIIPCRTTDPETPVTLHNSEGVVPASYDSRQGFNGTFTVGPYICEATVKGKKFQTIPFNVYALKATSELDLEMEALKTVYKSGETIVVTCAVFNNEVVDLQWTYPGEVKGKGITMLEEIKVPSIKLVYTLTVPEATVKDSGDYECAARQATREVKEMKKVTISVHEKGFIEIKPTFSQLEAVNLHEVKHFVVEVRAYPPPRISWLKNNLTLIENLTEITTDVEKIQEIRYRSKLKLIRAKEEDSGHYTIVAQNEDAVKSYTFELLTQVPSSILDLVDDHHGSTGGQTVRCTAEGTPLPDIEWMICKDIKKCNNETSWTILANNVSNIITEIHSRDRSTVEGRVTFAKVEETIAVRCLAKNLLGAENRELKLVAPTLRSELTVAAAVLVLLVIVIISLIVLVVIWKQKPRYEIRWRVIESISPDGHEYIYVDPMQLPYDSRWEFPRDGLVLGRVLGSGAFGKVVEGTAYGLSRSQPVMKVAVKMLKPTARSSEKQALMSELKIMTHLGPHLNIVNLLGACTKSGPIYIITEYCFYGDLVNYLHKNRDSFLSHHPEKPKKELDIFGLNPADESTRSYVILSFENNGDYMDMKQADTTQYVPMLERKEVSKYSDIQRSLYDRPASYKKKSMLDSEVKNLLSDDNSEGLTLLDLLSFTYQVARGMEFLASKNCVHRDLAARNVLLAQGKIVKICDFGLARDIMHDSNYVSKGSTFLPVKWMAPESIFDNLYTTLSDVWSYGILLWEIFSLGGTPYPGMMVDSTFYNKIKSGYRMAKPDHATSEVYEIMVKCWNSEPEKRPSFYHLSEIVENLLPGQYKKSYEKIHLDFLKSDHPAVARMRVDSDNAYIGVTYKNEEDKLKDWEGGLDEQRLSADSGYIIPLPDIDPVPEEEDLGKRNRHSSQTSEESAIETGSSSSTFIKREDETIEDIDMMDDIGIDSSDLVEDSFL

Chain of Ribosomal protein S6 kinase alpha-1 (Homo sapiens) (Q15418 whole entry): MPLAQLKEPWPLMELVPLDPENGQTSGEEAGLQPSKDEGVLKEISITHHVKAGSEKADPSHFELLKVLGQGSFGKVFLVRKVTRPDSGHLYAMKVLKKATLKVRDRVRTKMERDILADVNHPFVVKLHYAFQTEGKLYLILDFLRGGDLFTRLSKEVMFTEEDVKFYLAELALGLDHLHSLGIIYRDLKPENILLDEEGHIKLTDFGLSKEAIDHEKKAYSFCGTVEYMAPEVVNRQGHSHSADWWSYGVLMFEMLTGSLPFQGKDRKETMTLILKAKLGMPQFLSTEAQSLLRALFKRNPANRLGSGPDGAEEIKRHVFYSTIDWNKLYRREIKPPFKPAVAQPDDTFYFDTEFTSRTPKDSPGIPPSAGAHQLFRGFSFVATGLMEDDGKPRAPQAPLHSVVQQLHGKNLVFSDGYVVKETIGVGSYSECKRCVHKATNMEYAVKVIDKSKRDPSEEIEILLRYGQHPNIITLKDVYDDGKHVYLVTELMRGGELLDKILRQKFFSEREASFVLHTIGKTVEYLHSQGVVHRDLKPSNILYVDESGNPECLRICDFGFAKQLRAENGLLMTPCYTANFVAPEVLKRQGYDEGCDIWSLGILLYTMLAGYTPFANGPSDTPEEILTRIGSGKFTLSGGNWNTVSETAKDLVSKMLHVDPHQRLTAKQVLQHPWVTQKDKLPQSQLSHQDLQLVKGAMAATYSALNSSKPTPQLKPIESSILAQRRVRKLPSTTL

As to `C[C@H](CN(C)C)Oc1nc(Nc2cc3cccc(Cl)c3cn2)cnc1C#N`, the inhibition worked out at 3% in assay [1], 0% in [2] and 48.5% in [3]. Take `c1nc(N2CCOCC2)c2nc[nH]c2n1`: the inhibition in assay [4] came out at 70%. On to `NCCc1ccc(-c2ncnc3[nH]cnc23)cc1`, for which, in assay [5], the inhibition turned out to be 68.5%. With `NCC1CN(c2ncnc3[nH]c4cnccc4c23)CCO1` (stereo not given), the inhibition in [6] amounted to 16%; in assay [7] it was 68%.

Take `NCC1CCN(c2ncnc3[nH]ccc23)CC1`: the inhibition came out at 81% in assay [8] and 67.5% in [9]. With `NC1(Cc2ccc(Cl)cc2)CCN(c2ncnc3[nH]ccc23)CC1`, in [10], the inhibition stood at 0%.
